Measured values from patent US20080119530A1, “Method for treatment and prevention of ultraviolet light induced skin pathologies” (priority 2006, published 2008).
Marks after values point to notes of the source that are not given here.

Columns and labels:
[1] = test system: skin; assay: Affymetrix microarray analysis of gene expression in mouse skin; format: in vivo
Text: Adult female CD-1 mice were maintained in our animal facility and provided with Purina lab chow (Nestlé Purina PetCare, St. Louis, Mo.) and water ad libitum. The dorsal skin was clipped one day before treatment and shaved with a Remington Microscreen shaver (Wahl, Sterling, II) on the day of treatment. […] UVB TL 40W/12 RS bulbs (Philips, Somerset, N.J.) were used that emitted approximately 30% UV-A, 70% UV-B and <1% UV-C, with a total output of 470 μW/cm^2, as measured with radiometric photodetector probes (Newport, Irvine, Calif.). Skin-fold thickness was measured using calipers to lightly pinch the dorsal skin. All animal procedures were approved by our Institutional Animal Care and Use Committee.
Microarray Analysis. Flash frozen skin was ground to a powder using a mortar and pestle and RNA extracted using a PowerGen 700 tissue homogenizer (Fisher, Hampton, N.H.) in TRIzol reagent (Invitrogen, Carlsbad, Calif.) according to the manufacturer's protocol. Total RNA was further purified using RNeasy Midi Columns according to the manufacturer's protocol (Qiagen, Valencia, Calif.). The quality of the RNA was assessed using an RNA 6000 Pico Assay (Aligent, Palo Alto, Calif.) with a Bioanalyzer (Agilent, Palo Alto, Calif.). Mouse MOE430A gene chips were purchased from Affymetrix (Santa Clara, Calif.). Five micrograms of total RNA from each sample was reverse transcribed using Superscript II (Invitrogen, Carlsbad, Calif.). In vitro transcription to generate biotinylated cRNA was performed using the Bioarray High Yield RNA Transcript Labeling kit (Enzo Diagnostics, Farmingdale, N.Y.). Fifteen micrograms of fragmented cRNA was hybridized for 16 h to mouse MOE430A chips at 45° C. using the Affymetrix 640 hybridization oven, stained, and scanned using the Agilent scanner according to standard Affymetrix protocols. Signal intensities from the Affymetrix “.CEL” files were derived using GeneChip Operating Software v1.2 (Affymetrix, Santa Clara, Calif.), multiplicative model-based expression index (dChip software)^19 and robust multi-array average^20. The data discussed in this publication have been deposited in NCBIs Gene Expression Omnibus (GEO) and are accessible through GEO Series accession number GSE4066. Methods employed to determine significant changes in gene expression from the derived signal intensities were Rank Products (RP)21, Significance Analysis of Microarrays (SAM)^22, Analysis of Variance (ANOVA), Student's t-test, and fold-change. […] Hierarchical clustering of gene expression was performed with dChip software. […] Significant clustering was also found among samples 6 h after UV and among samples 24 h after UV. Furthermore, significant clustering was found among samples treated with DMSO and among those treated with AG825. Scatter plots were generated using GeneChip Operating Software. Self-Organizing Maps were generated using GeneCluster 2.0 software^23. Grouping of genes into biological processes was performed using NetAffx Analysis Center and literature searches. Genes were mapped into biological networks with Pathways Analysis software (Ingenuity Systems, Mountain View, Calif.). Promoter Analysis and Interaction Network Toolset v3.3 (PAINT) was used to scan sequences up to 2000 base pair upstream of genes with altered expression to search for transcription factor binding sequences or transcriptional response elements (TRE) using a 0.95 core similarity threshold^24.
The influence of Erbb2 on gene expression following UV exposure was assessed using microarray analysis. […] Mice were exposed to UV twice because previous results indicated the influence of Erbb receptors on the response of the skin to UV increases with multiple exposures (22). […] In two randomly selected vehicle-treated and sham-irradiated mice, 8 genes out of approximately 13,000 detected (<0.1%) were expressed with more than a 5-fold difference between them. […]

[2] = molecular target: insulin-like growth factor I receptor kinase (Homo sapiens, UniProt P08069)
[3] = Adhesion and Migration, 6 h post-UV
[4] = Adhesion and Migration, 24 h post-UV
[5] = Cell Communication, 6 h post-UV
[6] = Cell Communication, 24 h post-UV
[7] = Pigment Biosynthesis, 6 h post-UV
[8] = Pigment Biosynthesis, 24 h post-UV

Sequence of insulin-like growth factor I receptor kinase (P08069 31-1367): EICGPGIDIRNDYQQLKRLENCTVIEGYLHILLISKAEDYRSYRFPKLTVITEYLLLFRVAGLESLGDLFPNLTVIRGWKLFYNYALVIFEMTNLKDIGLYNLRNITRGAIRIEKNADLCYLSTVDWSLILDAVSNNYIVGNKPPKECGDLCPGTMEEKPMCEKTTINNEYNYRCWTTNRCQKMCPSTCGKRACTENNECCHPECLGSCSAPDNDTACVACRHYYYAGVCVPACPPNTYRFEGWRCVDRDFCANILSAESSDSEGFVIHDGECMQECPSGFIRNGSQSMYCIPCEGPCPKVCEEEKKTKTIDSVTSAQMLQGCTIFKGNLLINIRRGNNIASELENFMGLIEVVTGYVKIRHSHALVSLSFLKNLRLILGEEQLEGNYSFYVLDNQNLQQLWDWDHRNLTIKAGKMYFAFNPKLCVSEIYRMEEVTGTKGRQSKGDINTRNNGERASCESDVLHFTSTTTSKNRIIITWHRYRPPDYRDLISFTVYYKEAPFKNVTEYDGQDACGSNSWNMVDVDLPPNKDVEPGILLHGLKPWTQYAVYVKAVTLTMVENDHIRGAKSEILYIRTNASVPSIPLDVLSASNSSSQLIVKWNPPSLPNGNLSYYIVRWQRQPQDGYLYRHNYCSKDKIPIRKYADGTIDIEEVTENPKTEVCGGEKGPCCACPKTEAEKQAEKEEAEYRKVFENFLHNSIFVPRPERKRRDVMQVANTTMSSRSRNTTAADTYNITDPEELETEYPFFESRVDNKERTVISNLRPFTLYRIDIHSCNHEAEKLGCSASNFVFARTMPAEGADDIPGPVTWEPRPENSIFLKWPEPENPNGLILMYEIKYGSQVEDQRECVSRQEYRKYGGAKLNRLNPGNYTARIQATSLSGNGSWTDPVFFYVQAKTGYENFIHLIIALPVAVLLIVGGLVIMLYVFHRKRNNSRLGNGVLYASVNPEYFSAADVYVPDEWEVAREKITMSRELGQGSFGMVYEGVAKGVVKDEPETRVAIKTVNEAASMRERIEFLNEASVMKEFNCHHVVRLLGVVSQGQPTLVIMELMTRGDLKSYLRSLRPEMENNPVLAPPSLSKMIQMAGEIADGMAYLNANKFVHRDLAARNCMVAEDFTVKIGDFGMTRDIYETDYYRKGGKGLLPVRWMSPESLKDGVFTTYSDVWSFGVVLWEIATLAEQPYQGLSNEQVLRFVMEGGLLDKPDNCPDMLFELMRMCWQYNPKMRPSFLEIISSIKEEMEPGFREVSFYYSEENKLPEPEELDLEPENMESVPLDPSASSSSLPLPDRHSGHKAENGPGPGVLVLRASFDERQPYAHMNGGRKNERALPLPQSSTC

## COc1cc(/C=C(\C#N)C(N)=O)cc(CSc2nc3ccccc3s2)c1O [AG825]
[1]; 6 h after UV
  number of genes with altered expression: 218
  share of the altered genes with increased expression: 61%
[1]; 24 h after UV
  number of genes with altered expression: 127
  share of the altered genes with increased expression: 54%
[1]; 24 h after UV exposure, Affymetrix data
  fold increase in Mmp9 expression: 2 fold
[1]; 24 h post-UV, Affymetrix probe
  Thbs1 expression vs vehicle-treated mice: similar
[1]; Adhesion and Migration
  Total number of genes changed in AG825-treated samples: 47
  percentage of the total number of genes altered by Erbb2: (13%)
[1]; [3]
  Number of genes decreased (↓) in AG825-treated samples when compared to the vehicle alone: 13
  Number of genes increased (↑) in AG825-treated samples when compared to the vehicle alone: 14
[1]; [4]
  Number of genes decreased (↓) in AG825-treated samples when compared to the vehicle alone: 14
  Number of genes increased (↑) in AG825-treated samples when compared to the vehicle alone: 4
[1]; Adhesion and Migration, Sham
  Number of genes decreased (↓) in AG825-treated samples when compared to the vehicle alone: 0
  Number of genes increased (↑) in AG825-treated samples when compared to the vehicle alone: 7
[1]; Apoptosis
  Total number of genes changed in AG825-treated samples: 25
  percentage of the total number of genes altered by Erbb2: (7%)
[1]; Apoptosis, 6 h post-UV
  Number of genes decreased (↓) in AG825-treated samples when compared to the vehicle alone: 6
  Number of genes increased (↑) in AG825-treated samples when compared to the vehicle alone: 5
[1]; Apoptosis, 24 h post-UV
  Number of genes decreased (↓) in AG825-treated samples when compared to the vehicle alone: 4
  Number of genes increased (↑) in AG825-treated samples when compared to the vehicle alone: 6
[1]; Apoptosis, Sham
  Number of genes decreased (↓) in AG825-treated samples when compared to the vehicle alone: 2
  Number of genes increased (↑) in AG825-treated samples when compared to the vehicle alone: 2
[1]; Cancer
  Total number of genes changed in AG825-treated samples: 55
  percentage of the total number of genes altered by Erbb2: (15%)
[1]; Cancer, 6 h post-UV
  Number of genes decreased (↓) in AG825-treated samples when compared to the vehicle alone: 12
  Number of genes increased (↑) in AG825-treated samples when compared to the vehicle alone: 25
[1]; Cancer, 24 h post-UV
  Number of genes decreased (↓) in AG825-treated samples when compared to the vehicle alone: 7
  Number of genes increased (↑) in AG825-treated samples when compared to the vehicle alone: 8
[1]; Cancer, Sham
  Number of genes decreased (↓) in AG825-treated samples when compared to the vehicle alone: 3
  Number of genes increased (↑) in AG825-treated samples when compared to the vehicle alone: 5
[1]; Cell Communication
  Total number of genes changed in AG825-treated samples: 65
  percentage of the total number of genes altered by Erbb2: (18%)
[1]; [5]
  Number of genes decreased (↓) in AG825-treated samples when compared to the vehicle alone: 18
  Number of genes increased (↑) in AG825-treated samples when compared to the vehicle alone: 18
[1]; [6]
  Number of genes decreased (↓) in AG825-treated samples when compared to the vehicle alone: 20
  Number of genes increased (↑) in AG825-treated samples when compared to the vehicle alone: 5
[1]; Cell Communication, Sham
  Number of genes decreased (↓) in AG825-treated samples when compared to the vehicle alone: 1
  Number of genes increased (↑) in AG825-treated samples when compared to the vehicle alone: 6
[1]; Development
  Total number of genes changed in AG825-treated samples: 55
  percentage of the total number of genes altered by Erbb2: (15%)
[1]; Development, 6 h post-UV
  Number of genes decreased (↓) in AG825-treated samples when compared to the vehicle alone: 8
  Number of genes increased (↑) in AG825-treated samples when compared to the vehicle alone: 26
[1]; Development, 24 h post-UV
  Number of genes decreased (↓) in AG825-treated samples when compared to the vehicle alone: 12
  Number of genes increased (↑) in AG825-treated samples when compared to the vehicle alone: 4
[1]; Development, Sham
  Number of genes decreased (↓) in AG825-treated samples when compared to the vehicle alone: 2
  Number of genes increased (↑) in AG825-treated samples when compared to the vehicle alone: 6
[1]; Immune Response
  Total number of genes changed in AG825-treated samples: 65
  percentage of the total number of genes altered by Erbb2: (18%)
[1]; Immune Response, 6 h post-UV
  Number of genes decreased (↓) in AG825-treated samples when compared to the vehicle alone: 42
  Number of genes increased (↑) in AG825-treated samples when compared to the vehicle alone: 3
[1]; Immune Response, 24 h post-UV
  Number of genes decreased (↓) in AG825-treated samples when compared to the vehicle alone: 14
  Number of genes increased (↑) in AG825-treated samples when compared to the vehicle alone: 4
[1]; Immune Response, Sham
  Number of genes decreased (↓) in AG825-treated samples when compared to the vehicle alone: 0
  Number of genes increased (↑) in AG825-treated samples when compared to the vehicle alone: 8
[1]; Metabolism
  Total number of genes changed in AG825-treated samples: 158
[1]; Metabolism, 6 h post-UV
  Number of genes decreased (↓) in AG825-treated samples when compared to the vehicle alone: 23
  Number of genes increased (↑) in AG825-treated samples when compared to the vehicle alone: 63
[1]; Metabolism, 24 h post-UV
  Number of genes decreased (↓) in AG825-treated samples when compared to the vehicle alone: 24
  Number of genes increased (↑) in AG825-treated samples when compared to the vehicle alone: 43
[1]; Metabolism, Sham
  Number of genes decreased (↓) in AG825-treated samples when compared to the vehicle alone: 10
  Number of genes increased (↑) in AG825-treated samples when compared to the vehicle alone: 9
[1]; Pigment Biosynthesis
  Total number of genes changed in AG825-treated samples: 6
  percentage of the total number of genes altered by Erbb2: (2%)
[1]; [7]
  Number of genes decreased (↓) in AG825-treated samples when compared to the vehicle alone: 0
  Number of genes increased (↑) in AG825-treated samples when compared to the vehicle alone: 5
[1]; [8]
  Number of genes decreased (↓) in AG825-treated samples when compared to the vehicle alone: 0
  Number of genes increased (↑) in AG825-treated samples when compared to the vehicle alone: 1
[1]; Pigment Biosynthesis, Sham
  Number of genes decreased (↓) in AG825-treated samples when compared to the vehicle alone: 3
  Number of genes increased (↑) in AG825-treated samples when compared to the vehicle alone: 0
[1]; Proliferation
  Total number of genes changed in AG825-treated samples: 36
  percentage of the total number of genes altered by Erbb2: (10%)^c
[1]; Proliferation, 6 h post-UV
  Number of genes decreased (↓) in AG825-treated samples when compared to the vehicle alone: 6
  Number of genes increased (↑) in AG825-treated samples when compared to the vehicle alone: 21
[1]; Proliferation, 24 h post-UV
  Number of genes decreased (↓) in AG825-treated samples when compared to the vehicle alone: 3
  Number of genes increased (↑) in AG825-treated samples when compared to the vehicle alone: 6
[1]; Proliferation, Sham
  Number of genes decreased (↓) in AG825-treated samples when compared to the vehicle alone: 3^b
  Number of genes increased (↑) in AG825-treated samples when compared to the vehicle alone: 2
[1]; Total Genes
  Total number of genes changed in AG825-treated samples: 361
[1]; Total Genes, 6 h post-UV
  Number of genes decreased (↓) in AG825-treated samples when compared to the vehicle alone: 85
  Number of genes increased (↑) in AG825-treated samples when compared to the vehicle alone: 133
[1]; Total Genes, 24 h post-UV
  Number of genes decreased (↓) in AG825-treated samples when compared to the vehicle alone: 59
  Number of genes increased (↑) in AG825-treated samples when compared to the vehicle alone: 68
[1]; Total Genes, Sham
  Number of genes decreased (↓) in AG825-treated samples when compared to the vehicle alone: 14
  Number of genes increased (↑) in AG825-treated samples when compared to the vehicle alone: 25
[1]; after UV
  expression of cell cycle regulatory genes such as Ccna2, Ccnb1 and Ccnb2: lesser responsiveness to UV
[1]; all 361 genes
  share of the altered genes with increased expression: 61%
[1]; by 24 h after UV exposure
  expression of proinflammatory chemokines such as Cxcl2 and Cd44 compared to vehicle-treated skin: lower
[1]; microarray
  Il1 b expression: fold greater increase after UV in vehicle-treated compared to AG825-treated samples: 16 fold
[1]; mouse, in vivo
  expression of the anti-apoptotic genes Ghr and Ptgs2: suppressed
[1]; sham-irradiated skin, Affymetrix probe
  fold higher Thbs1 expression compared to corresponding control: 2 fold
[1]; without UV irradiation
  number of genes with altered expression: 39
  share of the altered genes with increased expression: 64%
[2]
  fold higher IC50 for insulin-like growth factor I receptor kinase than for Erbb2: more than 100 fold
